Read-outs that look alike come from different tables or passages of the source.

For test [1], the system named is MRC-5 normal human lung fibroblasts. Put plainly: Cytotoxicity assay, Alamar blue, Example 2. Type of test: cell-based. Conditions: Homo sapiens, MRC5; MRC-5, concentration which killed half of the cells. The method, then: The in vitro toxicity of the compounds (24a, 38b, 42d, 43d) was determined against MRC-5 normal human lung fibroblasts using the Alamar blue assay (see O'Brien, J.; Wilson, I.; Orton, T.; Pognan, F. Eur. J. Biochem. 2000, 267 (17), 5421-5426). A dose-response curve for each compound was generated to determine the IC50 values (concentration of compound which killed half of the cells) and the IC50 values were then used to determine the therapeutic window (IC50 value divided by MIC value) and specificity of the compounds (Table 3).
For orientation: The colour change of resazurin is a common sign of viable cells or microbes.

The nature of test [2]: Membrane conduction, tBLMs containing 30% POPG, Example 2. To be noted: negatively charged lipid, 50 μM, preliminary study. The source says: Tethered bilayer lipid membranes (tBLMs) associated with alternating current electrical impedance spectroscopy techniques were employed to determine whether the compounds (24a, 38b, 42d, 43d) are lytic to cell membranes. Sparsely tethered tBLMs containing 30% palmitoyl-oleoyl-phosphati-dylglycerol (POPG) were created using the solvent-exchange technique described by Cranfield et al. in 2015 (see Cranfield, C. G.; Bettler, T.; Cornell, B. Langmuir 2015, 31 (1), 292-298). The tBLM conduction responses of compounds (24a, 38b, 42d, 43d) were compared to that of LL-37, a cathelicidin AMP that is known to permeabilise membranes.

Test [3] concerns S. aureus (SA38). In words: Minimal inhibitory concentration (MIC) assay, Example 2. Type of test: cell-based. Conditions: Staphylococcus aureus, TSB, 37° C., 24 h. The method, then:
A single colony of bacteria was cultured overnight in TSB at 37° C. The resulting bacterial culture was collected by centrifugation and re-suspended in TSB twice. The optical density (OD) of the resulting culture was adjusted to OD600=0.1 in TSB (equivalent to 10^8 colony forming unit (CFU)/mL bacteria), and was further diluted to 10^5 CFU/mL in TSB. 100 μL of the bacterial solution was then added to wells of a 96-well plate containing 100 μL serially diluted compound, with final concentration ranging from 8-250 μM. The plates were then incubated at 37° C. for 24 h and the data was recorded by measuring the OD value at 600 nm using a Wallac Victor (Perkin-Elmer) microplate reader. […] Each experiment was performed in triplicate and was repeated in two independent experiments. The results of the MIC assay are given below in Table 2.

For test [4], the system named is S. marcescens. In words: Biofilm disruption assay, established biofilms, crystal violet staining. Format: cell-based, Serratia marcescens. To be noted: 250 μM, 24 h treatment. The method, then: (§1) Bacterial cultures were grown in TSB media for overnight at 37° C. with shaking at 150 r.p.m. Cultures were diluted (1:20) in YPD medium and 200 μl aliquots were dispensed to flat bottom 96-well plate wells (Sarstedt Australia). Cultures were supplemented with varying concentrations of synthetic compounds dissolved in water. For pre-established biofilm assay, cultures were grown in 96-well plate wells overnight prior to supplementation with synthetic compounds. Control cultures were supplemented with an equal amount of DMSO. Plates were sealed with self-adhesive microplate sealers (TopSeal-A, PerkinElmer) to allow air diffusion and to prevent condensation. Cultures were incubated overnight at 37° C. with shaking at 150 r.p.m. Biofilms adhered on polystyrene substratum were quantified by crystal violet staining as described previously (see Wiegand, I.; Hilpert, K.; Hancock, R. E. W. Nat. Protocols 2008, 3 (2), 163-175). All cultures were prepared in triplicates. Error bars represent the standard error of three independent experiments (n=3).
(§2) The biofilm disruption activities of the compounds were investigated using crystal violet staining according to a previously published protocol (G. A. O'Toole, J Vis Exp, 2011, (47), pii: 2437, DOI: 10.3791/2437, 2437). The ability of compounds (34-38, 51-56, 61, 62, 65 and 66) to disrupt the established biofilms of the Gram-positive bacteria S. aureus and the Gram-negative bacteria Pseudomonas aeruginosa, Serratia marcescens and E. coli, was determined at a concentration of 250 μM. In this assay, bacterial cultures were grown on a polystyrene substratum overnight prior to treatment with the compounds. In addition, the ability of these compounds to inhibit the formation of biofilms of P. aeruginosa and S. marcescens was also investigated at 250 μM, whereby the bacterial cultures were grown in the presence of test compounds.

Test [5] deals with E. coli. Put plainly: Minimal inhibitory concentration (MIC) determination, Example 1. Type of test: cell-based. To be noted: Escherichia coli, 24 h, MHB, 37° C., read-out: Minimum inhibitory concentration (MIC) E. coli. The method, then: (§3) The antibacterial activity of the compounds was determined by the determination of minimal inhibitory concentration (MIC) by following the previously published protocol (see Nizalapur, S.; Ho, K. K.; Kimyon, Ö.; Yee, E.; Berry, T.; Manefield, M.; Cranfield, C. G.; Willcox, M.; Black, D. S.; Kumar, N. Org. Biomol. Chem. 2016, 14, 3623). The compounds to be tested were dissolved and diluted in autoclaved Millipore water. A single colony of bacteria was cultured overnight in TSB at 37° C. The resulting bacteria were collected by centrifugation and re-suspended in the same volume of MHB twice. Optical density (OD) of the resulting culture was adjusted to 0.1 at 600 nm (10^8 CFU/mL) in MHB, and the adjusted culture was further diluted to […] in MHB. Then, 100 μL of the bacterial solution was added to wells of a 96-well plate containing 100 μL of serially diluted compound. Two controls were also prepared: one containing 100 μL of MHB media and 100 μL sterile water, and the other containing 100 μL of bacterial solution and 100 μL sterile water. […] The MIC value was determined as the lowest concentration of compound that inhibited the complete growth of the bacteria (i.e. OD similar to that of the control having no bacteria). Each experiment was performed in triplicate and was repeated in three independent experiments.
(§4) The results of the MIC assay are given below in Table 1.

Test [6] has as its system S. aureus. Described as above. Type of test: cell-based. Conditions: Staphylococcus aureus. The method, then: as §3, §4
Test [7] concerns Pseudomonas aeruginosa (PAO1). In words: Biofilm disruption assay, established biofilms, crystal violet staining. Format: cell-based. Conditions: 250 μM, 24 h treatment. The method, then: as §1, §2
Test [8] deals with E. coli. Described as above. Type of test: cell-based. Conditions: 250 μM, 24 h treatment. The protocol:
as §1, §2

For test [9], the system named is S. aureus. The description is as above. Type of test: cell-based. Conditions: 250 μM, 24 h treatment. The method, then:
as §1, §2

For test [10], the system named is S. aureus biofilms. Put plainly: Confocal microscopy of established biofilms, Live/dead stain. Format: cell-based. Conditions: 250 μM.
Test [11] has as its system S. marcescens biofilms. Put plainly: Confocal microscopy of non-established biofilms, Live/dead stain. Format: cell-based, Serratia marcescens. Conditions: 250 μM. The method, then: S. aureus and Serratia marcescens biofilms were grown by adding 1.5 ml of bacterial cells (OD600 nm˜0.600) suspended in fresh TSB medium into 35×10 mm polystyrene petri dishes and incubated over 24 h at 37° C. in a shaking incubator at 120 r.p.m. Cultures were supplemented with varying concentrations of synthetic compounds dissolved in water. Control cultures were supplemented with an equal amount of water. After 24 h, the biofilm growth medium was discarded and the biofilms were gently rinsed 3 times with PBS (pH: 7.0) in order to remove any planktonic bacterial cells. The remaining substratum adhered biofilms were then stained with Live/dead stain (Invitrogen, Oregon, USA) for 20 mins in the dark and then subjected to confocal microscopy. Stained biofilms were visualized with FV 1200 Confocal microscope.

Test [12] has as its system Pseudomonas aeruginosa (PAO1). Put plainly: Biofilm inhibition assay (inhibition of biofilm formation), crystal violet staining. Format: cell-based. Conditions: 24 h, read-out: inhibition of biofilm formation by P. aeruginosa. The method, then:
as §1, with “no-established” for “pre-established”, “along” for “prior to supplementation”, “water.” for “DMSO.”
as §2

Test [13] has as its system MRC-5 normal human lung fibroblasts. In words: Toxicity assay, Alamar blue, Example 1. Conditions: 72 h incubation. Type of test: cell-based. The method, then: The normal human lung fibroblasts MRC-5 were cultured in minimal essential medium (MEM, Invitrogen) supplemented with 10% foetal calf serum (FCS), 1% L-glutamine-penicillin-streptomycin, 2% sodium bicarbonate, 1% non-essential amino acids (NEAA) and 1% sodium pyruvate. The cell line was maintained at 37° C. in 5% CO2 as an adherent monolayer and was passaged upon reaching confluence by standard cell culture techniques. MRC-5 cells were seeded at 2×10^4 cells per well in 96-well plates to ensure full confluence (quiescence). Cells were treated 24 h after seeding with 0.1 to 1000 μM of compounds. After 72 h drug incubation, the treated media was replaced with fresh media containing 10% Alamar blue and the cells were incubated for another 6 h. The metabolic activity was detected by spectrophotometric analysis by assessing the absorbance of Alamar blue as previously described by Pasquier et. al (see Pasquier, E.; Ciccolini, J.; Carre, M.; Giacometti, S.; Fanciullino, R.; Pouchy, C.; Montero, M.-P.; Serdjebi, C.; Kavallaris, M.; André, N. Oncotarget 2011, 2, 797).
Cell proliferation was determined and expressed as a percentage of untreated control cells. The determination of IC50 values was performed using GraphPad Prism 6 (San Diego, Calif., USA).
To further evaluate the utility of these novel guanylated peptidomimetics for medical applications, it was essential to determine their specificity towards bacterial cells over mammalian cells.

The subject of test [14] is S. aureus (SA38). To be noted: Literature value; cited from earlier work.
[15] abbreviates: MHB, 37° C., 24 h, read-out: Minimum inhibitory concentration (MIC) S. aureus.

What is called IC50 is the point on the concentration scale where inhibition reaches its midpoint. Read a high IC50 as weaker potency in that assay. Regarding `CCCCCCCCS(=O)(=O)Nc1ccc(Br)cc1C(=O)C(=O)NCCCNC(=N)N.Cl` [Compound 43d, 2-(5-Bromo-2-(octylsulfonamido)phenyl)-N-(3-guanidinopropyl)-2-oxoacetamide hydrochloride], the half-maximal inhibitory concentration (IC50) in [1] was determined as 178 µM. Also, the tBLM conduction response entry in test [2] is reported as “showed conduction responses”. In [3], this molecule registered an MIC of 12 µM.

`COC(=O)C(CCCN)NC(=O)C(CCCCN)NC(=O)C(=O)c1cc(Br)ccc1NC(=O)c1ccc2ccccc2c1.Cl.Cl` (stereo not drawn) [Compound 62, Methyl 2-(2-(2-(2-(2-naphthamido)-5-bromophenyl)-2-oxoacetamido)-6-aminohexanamido)-5-aminopentanoate dihydrochloride]: in [4], the “disruption of established biofilms of S. marcescens” value turned out to be 49%. For the same molecule, the MIC in test [5] is 21 mg/L; in test [6] (setting [15]) it was 23 mg/L. The “disruption of established biofilms of P. aeruginosa” value in test [7] worked out at 46%. Further, the “disruption of established biofilms of E. coli” value in test [8] was determined as 42%. Besides, the “disruption of established biofilms of S. aureus” value in test [9] is on record as 61%. Also, the “confocal microscopy, effect on pre-established S. aureus biofilm” value in test [10] is on record as “disrupted the pre-established biofilm significantly”.

For orientation: inhibition means the relative decrease from the control value, in per cent. In the case of `COC(=O)[C@H](CCCNC(=N)N)NC(=O)[C@H](CCCNC(=N)N)NC(=O)C(=O)c1ccccc1NC(=O)c1ccc2ccccc2c1.Cl.Cl` [Compound 65, Methyl (2-(2-(2-naphthamido)phenyl)-2-oxoacetyl)arginylargininate dihydrochloride], the “confocal microscopy, effect on S. marcescens biofilm formation” value in test [11] is listed as “inhibited biofilm formation”. The inhibition at 250 µM in test [12] came out at 65%. The “toxicity (IC50) against MRC-5 human fibroblast cells” value in [13] was “not reaching a 50% reduction of cell viability at the highest tested dose”. For the same molecule, the “disruption of established biofilms of S. marcescens” value in test [4] was 60%. Besides, the MIC was 90 mg/L in test [5]; 18 mg/L in [6] (setting [15]); 31 µM in [6] (MIC in μM as compared with MRC-5 IC50, read-out: equivalent MIC values).

Turning to MSI-78, the MIC in test [14] is 13 µM.

Values taken from patent US10988444B2, “Antimicrobial compounds” (NEWSOUTH INNOVATIONS PTY LIMITED, priority 2016, dated 2021).
